Columns and labels:
windgrass [1] = test: Test Example 5: herbicidal effect by foliage application, plastic box (Table 20, symbol L); type: in vivo, windgrass (Apera spica-venti); conditions: foliage application, AAH 320 g/ha, three weeks after application
Method in brief: (§1)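 Plants sown in sterilized diluvial soil and grown 14 days in a greenhouse at 25° C to 30° C, then sprayed on the foliage with the compound's emulsion diluted in water to a predetermined herbicide amount. Injury to weeds and crops scored three weeks after application on a visual rating scale.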

barnyard grass [2] = test: Test Example 4: herbicidal effect by soil treatment (Table 19, symbol H); type: in vivo, barnyard grass (Echinochloa crus-galli); conditions: AAH 320 g/ha
Method in brief: (§2)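 Three weeks of greenhouse growth at 25° C. to 30° C. followed a uniform surface spray of water-diluted emulsion at a predetermined herbicide amount. Seeds had been sown beforehand under about 1.5 cm of sterilized diluvial soil. Grading followed criteria set out in an earlier test.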

chickweed = test: Test Example 5: herbicidal effect by foliage application, plastic box (Table 20, symbol P); type: in vivo, common chickweed (Stellaria media); conditions: foliage application, AAH 320 g/ha, three weeks after application
Method in brief: as §1

blackgrass = test: Test Example 5: herbicidal effect by foliage application, plastic box (Table 20, symbol J); type: in vivo, blackgrass (Alopecurus myosuroides); conditions: foliage application, AAH 320 g/ha, three weeks after application
Method in brief: as §1

Japanese bulrush [3] = test: Test Example 2: herbicidal activity, application during weed generation under submerged conditions (Table 17, symbol B); type: in vivo, Japanese bulrush (Schoenoplectus juncoides); conditions: AAH 320 g/ha; application during weed generation, submerged conditions
Method in brief: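 Steps: fill Wagner pots with alluvial soil; add water to give 4 cm depth; sow the species mixed; grow under glass at 25–30° C.; at 1–2 leaves apply water-diluted emulsion formulation to the water surface at a fixed herbicide amount; score after 3 weeks.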

Chinese sprangletop = test: Test Example 3: herbicidal effect by foliage application, Wagner pot (Table 18, symbol D); type: in vivo, chinese sprangletop (Leptochloa chinensis); conditions: 320 g/ha
Method in brief: (§3)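 Plants were sown in alluvial soil held under 0.1–0.5 cm standing water and grown 14 days in a greenhouse at 25–30 °C. An emulsifiable formulation, water-diluted to the set dose, was then sprayed onto the foliage, and effects were scored three weeks later using previously defined criteria.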

persian speedwell = test: Test Example 4: herbicidal effect by soil treatment (Table 19, symbol R); type: in vivo, Persian speedwell (Veronica persica); conditions: AAH 320 g/ha
Method in brief: as §2

barnyard grass [4] = test: Test Example 5: herbicidal effect by foliage application, plastic box (Table 20, symbol H); type: in vivo, barnyard grass (Echinochloa crus-galli); conditions: foliage application, AAH 320 g/ha, three weeks after application
Method in brief: as §1

redroot pigweed = test: Test Example 5: herbicidal effect by foliage application, plastic box (Table 20, symbol N); type: in vivo, redroot pigweed (Amaranthus retroflexus); conditions: foliage application, AAH 320 g/ha, three weeks after application
Method in brief: as §1

windgrass [5] = test: Test Example 4: herbicidal effect by soil treatment (Table 19, symbol L); type: in vivo, windgrass (Apera spica-venti); conditions: AAH 320 g/ha
Method in brief: as §2

lambsquarters [6] = test: Test Example 5: herbicidal effect by foliage application, plastic box (Table 20, symbol O); type: in vivo, lambsquarters (Chenopodium album); conditions: foliage application, AAH 320 g/ha, three weeks after application
Method in brief: as §1

late watergrass = test: Test Example 1: herbicidal activity, application before weed generation under submerged conditions (Table 16, symbol A); type: in vivo, late watergrass (Echinochloa oryzicola); conditions: 320 g/ha applied herbicide
Method in brief: (§4)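 Emulsion formulation, water-diluted to set dose, was put onto the flooded surface (4 cm depth, alluvial soil) the same day weeds were sown and 2.5-leaf rice transplanted. After 3 weeks at 25-30 °C under glass, each species was rated 0 (≤5% kill) to 5 (≥90% kill).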

southern crabgrass = test: Test Example 4: herbicidal effect by soil treatment (Table 19, symbol F); type: in vivo, southern crabgrass (Digitaria ciliaris); conditions: AAH 320 g/ha
Method in brief: as §2

barnyard grass [7] = test: Test Example 3: herbicidal effect by foliage application, Wagner pot (Table 18, symbol H); type: in vivo, barnyard grass (Echinochloa crus-galli); conditions: 320 g/ha
Method in brief: as §3

Japanese bulrush [8] = test: Test Example 1: herbicidal activity, application before weed generation under submerged conditions (Table 16, symbol B); type: in vivo, Japanese bulrush (Schoenoplectus juncoides); conditions: 320 g/ha applied herbicide
Method in brief: as §4

lambsquarters [9] = test: Test Example 4: herbicidal effect by soil treatment (Table 19, symbol O); type: in vivo, lambsquarters (Chenopodium album); conditions: AAH 320 g/ha
Method in brief: as §2

Row | Structure (SMILES) | L: windgrass, herbicidal effect (windgrass [1]) | H: barnyard grass, herbicidal effect rating (barnyard grass [2]) | P: chickweed, herbicidal effect (chickweed) | J: blackgrass, herbicidal effect (blackgrass) | herbicidal effect rating, B: Japanese bulrush (Japanese bulrush [3]) | herbicidal effect on D (Chinese sprangletop), rating 0-5 (Chinese sprangletop) | R: persian speedwell, herbicidal effect rating (persian speedwell) | H: barnyard grass, herbicidal effect (barnyard grass [4]) | N: redroot pigweed, herbicidal effect (redroot pigweed) | L: windgrass, herbicidal effect rating (windgrass [5]) | O: lambsquarters, herbicidal effect (lambsquarters [6]) | Herbicidal effect on A: late watergrass (grade 0-5) (late watergrass) | F: southern crabgrass, herbicidal effect rating (southern crabgrass) | herbicidal effect on H (barnyard grass), rating 0-5 (barnyard grass [7]) | Herbicidal effect on B: Japanese bulrush (grade 0-5) (Japanese bulrush [8]) | O: lambsquarters, herbicidal effect rating (lambsquarters [9])
1 | CCCC(=O)Oc1c(C)nn(C)c(=O)c1-c1c(-c2ccc(C(C)C)cc2)sc2ccccc12 [1-126] | 0 (Herbicidal rate of 5% or less (almost no effect)) | 0 (Herbicidal rate of 5% or less (almost no effect)) | 5 (Herbicidal rate of 90% or more (almost completely withered)) | 0 (Herbicidal rate of 5% or less (almost no effect)) | 3 (Herbicidal rate of 40% or more and less than 70%) | 5 (Herbicidal rate of 90% or more (almost completely withered)) | 3 (Herbicidal rate of 40% or more and less than 70%) | 4 (Herbicidal rate of 70% or more and less than 90%) | 5 (Herbicidal rate of 90% or more (almost completely withered)) | 0 (Herbicidal rate of 5% or less (almost no effect)) | 4 (Herbicidal rate of 70% or more and less than 90%) | 3 (Herbicidal rate of 40% or more and less than 70%) | 0 (Herbicidal rate of 5% or less (almost no effect)) | 5 (Herbicidal rate of 90% or more (almost completely withered)) | 3 (Herbicidal rate of 40% or more and less than 70%) | 2 (Herbicidal rate of 20% or more and less than 40%)
2 | COCc1ccc(-c2sc3ccccc3c2-c2c(O)c(C)nn(C)c2=O)cc1 [1-131] | 4 (Herbicidal rate of 70% or more and less than 90%) | 5 (Herbicidal rate of 90% or more (almost completely withered)) | 5 (Herbicidal rate of 90% or more (almost completely withered)) | 4 (Herbicidal rate of 70% or more and less than 90%) | 1 (Herbicidal rate of 5% or more and less than 20%) | 4 (Herbicidal rate of 70% or more and less than 90%) | 5 (Herbicidal rate of 90% or more (almost completely withered)) | 5 (Herbicidal rate of 90% or more (almost completely withered)) | 5 (Herbicidal rate of 90% or more (almost completely withered)) | 2 (Herbicidal rate of 20% or more and less than 40%) | 5 (Herbicidal rate of 90% or more (almost completely withered)) | 2 (Herbicidal rate of 20% or more and less than 40%) | 4 (Herbicidal rate of 70% or more and less than 90%) | 5 (Herbicidal rate of 90% or more (almost completely withered)) | 1 (Herbicidal rate of 5% or more and less than 20%) | 5 (Herbicidal rate of 90% or more (almost completely withered))
3 | Cc1nn(C)c(=O)c(-c2c(-c3ccc(OCc4ccccc4)cc3)sc3ccccc23)c1O [1-133] | 0 (Herbicidal rate of 5% or less (almost no effect)) | 2 (Herbicidal rate of 20% or more and less than 40%) | 5 (Herbicidal rate of 90% or more (almost completely withered)) | 1 (Herbicidal rate of 5% or more and less than 20%) | 3 (Herbicidal rate of 40% or more and less than 70%) | 3 (Herbicidal rate of 40% or more and less than 70%) | 5 (Herbicidal rate of 90% or more (almost completely withered)) | 5 (Herbicidal rate of 90% or more (almost completely withered)) | 5 (Herbicidal rate of 90% or more (almost completely withered)) | 0 (Herbicidal rate of 5% or less (almost no effect)) | 5 (Herbicidal rate of 90% or more (almost completely withered)) | 5 (Herbicidal rate of 90% or more (almost completely withered)) | 2 (Herbicidal rate of 20% or more and less than 40%) | 5 (Herbicidal rate of 90% or more (almost completely withered)) | 5 (Herbicidal rate of 90% or more (almost completely withered)) | 1 (Herbicidal rate of 5% or more and less than 20%)
4 | Cc1nn(C)c(=O)c(-c2c(-c3ccc(OCC4CC4(F)F)cc3)sc3ccccc23)c1O (stereo not shown) [1-138] | 5 (Herbicidal rate of 90% or more (almost completely withered)) | 5 (Herbicidal rate of 90% or more (almost completely withered)) | 5 (Herbicidal rate of 90% or more (almost completely withered)) | 5 (Herbicidal rate of 90% or more (almost completely withered)) | 3 (Herbicidal rate of 40% or more and less than 70%) | 3 (Herbicidal rate of 40% or more and less than 70%) | 5 (Herbicidal rate of 90% or more (almost completely withered)) | 5 (Herbicidal rate of 90% or more (almost completely withered)) | 3 (Herbicidal rate of 40% or more and less than 70%) | 0 (Herbicidal rate of 5% or less (almost no effect)) | 4 (Herbicidal rate of 70% or more and less than 90%) | 3 (Herbicidal rate of 40% or more and less than 70%) | 0 (Herbicidal rate of 5% or less (almost no effect)) | 5 (Herbicidal rate of 90% or more (almost completely withered)) | 3 (Herbicidal rate of 40% or more and less than 70%) | 5 (Herbicidal rate of 90% or more (almost completely withered))
